{"source": "patent US5208320A", "about": "“Polypeptide having c-AMP-producing activity” (Takeda Chemical Industries, Ltd., priority 1990, dated 1993)", "key": {"PC12h cells": {"system": "PC12h cells", "assay": "c-AMP-producing activity: c-AMP secreted by PC12h cells, radioimmunoassay kit", "format": "cell-based, rat", "conditions": "sample added, 37° C. for 2 hours, c-AMP in culture solution, FIG. 1", "description": "In the present invention, c-AMP producing activity was assayed by determining the amount of c-AMP secreted out of cells with a radioimmunoassay kit for measuring c-AMP, using subcultured cell PC12h of rat adrenal medulla origin.\nEstablished cells derived from adrenal medullas, PC12h, were cultivated in Dulbecco's modified Eagle's medium containing 10% semi-fetal calf serum at 37° C. A 48-well collagen-treated plate was inoculated with 5×10^4 cells per well, and cultivation was conducted for 7 to 10 days. Then, the culture medium was exchanged for 500 μl of Hank's balanced salt solution, followed by standing at 37° C. for 30 minutes. A sample to be tested dissolved in the same solution was added thereto, and cultivation was conducted at 37° C. for 2 hours. Subsequently, the amount of c-AMP in this culture solution was assayed by using a kit for measuring c-AMP (Amersham Inc.)."}, "[1]": {"system": "neuronal cell death induced by the gp120 envelope glycoprotein of the AIDS virus", "conditions": "known property of VIP; cited from earlier work"}, "[2]": {"conditions": "background art; cited from earlier work"}}, "note": "Ends that are not written are not given here.", "data": [{"substance": "vasoactive intestinal peptide (HSDAVFTDNYTRLRKQMAVKKYLNSILN; ends and bridges not checked; UniProt P01282 125-152, looked up) [VIP, 68% homology with PACAP-27-NH2]", "values": [{"measurement": "c-AMP-producing activity", "setting": "PC12h cells", "value": "weak"}, {"measurement": "protection of neurons from cell death induced by gp120", "setting": "[1]", "value": "capable of protecting neurons from cell death"}, {"measurement": "c-AMP-producing activity", "setting": "[2]", "value": "very weak"}]}]}
